Like-named read-outs stand apart in the source and are kept apart here.
Assays:
[1] = molecular target: GDP-bound KRAS wild-type protein (Homo sapiens, UniProt P01116); assay: Binding to KRAS by surface plasmon resonance (SPR), Single Cycle Kinetics
[2] = molecular target: GDP-bound NRAS wild-type protein (Homo sapiens, UniProt P01111); assay: Binding to NRAS by surface plasmon resonance (SPR), Single Cycle Kinetics; settings: for NRAS/KRAS (ratio of KD value with respect to GDP-bound NRAS wild-type protein to KD value with respect to KRAS): SPR KD ratio NRAS/KRAS, class symbols; for NRAS/KRAS (ratio of KD value for NRAS to KD value for KRAS): GDP-bound NRAS wild-type protein vs GDP-bound KRAS wild-type protein
Sequence of GDP-bound NRAS wild-type protein (P01111 whole entry): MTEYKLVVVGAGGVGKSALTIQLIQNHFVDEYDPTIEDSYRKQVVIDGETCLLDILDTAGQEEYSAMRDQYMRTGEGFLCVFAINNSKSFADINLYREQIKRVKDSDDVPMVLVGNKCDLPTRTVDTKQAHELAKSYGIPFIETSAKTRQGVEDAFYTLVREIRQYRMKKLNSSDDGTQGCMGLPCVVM

[3] = molecular target: GDP-bound HRAS wild-type protein (Homo sapiens, UniProt P01112); assay: Binding to HRAS by surface plasmon resonance (SPR), Single Cycle Kinetics; settings: for HRAS/KRAS (ratio of KD value with respect to GDP-bound HRAS wild-type protein to KD value with respect to KRAS): SPR KD ratio HRAS/KRAS, class symbols; for HRAS/KRAS (ratio of KD value for HRAS to KD value for KRAS): GDP-bound HRAS wild-type protein vs GDP-bound KRAS wild-type protein
Sequence of GDP-bound HRAS wild-type protein (P01112 whole entry): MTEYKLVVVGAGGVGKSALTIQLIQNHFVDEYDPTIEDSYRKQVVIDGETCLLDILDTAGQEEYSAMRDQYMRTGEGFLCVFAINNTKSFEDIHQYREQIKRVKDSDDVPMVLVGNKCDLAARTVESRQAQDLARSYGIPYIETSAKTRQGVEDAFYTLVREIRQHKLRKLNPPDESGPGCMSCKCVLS

[4] = system: human lung cancer strain NCI-H441;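 also: cell proliferation inhibition after four days measured by CellTiter-Glo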
[5] = SPR Single Cycle Kinetics, GDP-bound KRAS wild-type protein, 1:1 binding model, read-out: KRAS KD
[6] = SPR, Single Cycle Kinetics, GDP-bound KRAS wild-type protein, read-out: KRAS KD
[7] = SPR, Single Cycle Kinetics, 1:1 binding model, GDP-bound KRAS wild-type protein, read-out: KRAS KD

Sequence of GDP-bound KRAS wild-type protein (P01116 whole entry): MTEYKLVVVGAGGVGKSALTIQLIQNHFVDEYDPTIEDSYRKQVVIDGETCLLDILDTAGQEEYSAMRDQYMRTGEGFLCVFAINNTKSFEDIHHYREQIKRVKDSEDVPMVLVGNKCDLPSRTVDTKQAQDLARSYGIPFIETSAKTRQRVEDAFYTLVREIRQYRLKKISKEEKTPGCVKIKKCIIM

Row | Compound | IC50 [4] [nM] | Kd [1, 6] [nM] | NRAS/KRAS (ratio of KD value for NRAS to KD value for KRAS) ([2]; SPR) | HRAS/KRAS (ratio of KD value for HRAS to KD value for KRAS) ([3]; SPR) | also measured
1 | CCCCN1CC(=O)NC2(CCC2)C(=O)N(C)[C@@H](C2CCCC2)C(=O)N(C)[C@H](C(=O)N(C)C)CC(=O)N(C)[C@@H](CC)C(=O)N[C@@H]([C@@H](C)CC)C(=O)N(C)CC(=O)N(C)[C@H]2C/C=C\CCN(C2=O)[C@@H](Cc2ccc(C(F)(F)F)cc2)C(=O)N(C)CC(=O)N[C@@H](CCc2cc(F)c(C(F)(F)F)c(F)c2)C1=O [PP1142] | 322 | 0.65 | A (a compound having 10 or more and less than 20 is denoted as A) | A (a compound having 10 or more and less than 20 is denoted as A) | –
2 | CCOC[C@H]1C(=O)N[C@@H]([C@@H](C)CC)C(=O)N(C)CC(=O)N(C)[C@H]2C/C=C\CCN(C2=O)[C@@H](CC2CCCCC2)C(=O)N(C)CC(=O)N[C@@H](CCc2ccc(C(F)(F)F)c(OC)c2)C(=O)N2C[C@@H](C)C[C@H]2C(=O)N(C)C2(CCC2)C(=O)N(C)[C@@H](C2CCCC2)C(=O)N(C)[C@H](C(=O)N(C)C)CC(=O)N1C [PP2371] | 41.9 | 0.64 | A (a compound having 10 or more and less than 20 is denoted as A) | B (a compound having 3 or more and less than 10 is denoted as B) | –
3 | CCO[C@@H]1C[C@H]2C(=O)NC3(CCC3)C(=O)N(C)[C@@H](C3CCCC3)C(=O)N(C)[C@H](C(=O)N3CCOCC3)CC(=O)N(C)[C@@H](CC)C(=O)N[C@@H]([C@@H](C)CC)C(=O)N(C)CC(=O)N(C)[C@H]3CC[C@@H](C)CN(C3=O)[C@@H](Cc3ccc(C(F)(F)F)cc3)C(=O)N(C)CC(=O)N[C@@H](CCc3ccc(C(F)(F)F)c(Cl)c3)C(=O)N2C1 [PP1378] | 6.6 | – | – | – | Kd [1, 7]: 0.081 nM; NRAS/KRAS (ratio of KD value for NRAS to KD value for KRAS) ([2]; SPR, KD ratio class): B (a compound having 3 or more and less than 10 is denoted as B); HRAS/KRAS (ratio of KD value for HRAS to KD value for KRAS) ([3]; SPR, KD ratio class): C (A compound having a KD ratio of 0.1 or more and less than 3 is denoted as C)
4 | CCC[C@H]1C(=O)N[C@@H]([C@@H](C)CC)C(=O)N2CCC[C@H]2C(=O)N(C)[C@H]2C/C=C\CCN(C2=O)[C@@H](Cc2ccc(C)cc2)C(=O)N(C)CC(=O)N[C@@H](CCc2ccc(C(F)(F)F)c(OC)c2)C(=O)N2C[C@H](OCC)C[C@H]2C(=O)N(C)C2(CCC2)C(=O)N(C)[C@@H](C2CCCC2)C(=O)N(C)[C@H](C(=O)N2CCCCC2)CC(=O)N1C [PP3100, (1S,4S,10S,13S,17S,20S,26S,28R,32S,38S,42Z)-20-cyclopentyl-28-ethoxy-32-[2-[3-methoxy-4-(trifluoromethyl)phenyl]ethyl]-2,14,18,21,24,36-hexamethyl-10-[(1S)-1-methylpropyl]-17-(piperidine-1-carbonyl)-13-propyl-38-(p-tolylmethyl)spiro[2,8,11,14,18,21,24,30,33,36,39-undecazatetracyclo[37.5.1.0^4,8.0^26,30]pentatetracont-42-ene-23,1′-cyclobutane]-3,9,12,15,19,22,25,31,34,37,45-undecone] | – | 0.29 | A (a compound having 10 or more and less than 20 is denoted as A) | B (a compound having 3 or more and less than 10 is denoted as B) | Kd ([1]; SPR, Single Cycle Kinetics, 1:1 binding model, read-out: KD value with respect to GDP-bound KRAS wild-type protein): 0.29 nM; ratio of the KD value with respect to GDP-bound NRAS wild-type protein to the KD value with respect to KRAS ([2]; SPR, KD(NRAS)/KD(KRAS)): A (a compound having 10 or more and less than 20 is denoted as A); ratio of the KD value with respect to GDP-bound HRAS wild-type protein to the KD value with respect to KRAS ([3]; SPR, KD(HRAS)/KD(KRAS)): B (a compound having 3 or more and less than 10 is denoted as B); IC50 ([4]; read-out: NCI-H441 cell proliferation inhibitory activity, 50% proliferation inhibitory concentration (IC50 value), NCI-H441, four days, CellTiter-Glo): 15 nM
5 | CCC[C@H]1C(=O)N[C@@H]([C@@H](C)CC)C(=O)N2CCC[C@H]2C(=O)N(C)[C@H]2C/C=C\CCN(C2=O)[C@@H](Cc2ccc(C)cc2)C(=O)N(C)CC(=O)N[C@@H](CCc2ccc(C(F)(F)F)c(OC)c2)C(=O)N2C[C@@H](C)C[C@H]2C(=O)N(C)C2(CCC2)C(=O)N(C)[C@@H](C2CCCC2)C(=O)N(C)[C@H](C(=O)N(C)C)CC(=O)N1C [PP2368] | 4.1 | 0.045 | A (a compound having 10 or more and less than 20 is denoted as A) | A (a compound having 10 or more and less than 20 is denoted as A) | –
6 | CCO[C@@H]1C[C@H]2C(=O)NC3(CCC3)C(=O)N(C)[C@@H](C3CCCC3)C(=O)N(C)[C@H](C(=O)N(C)C)CC(=O)N(C)[C@@H](CC(C)C)C(=O)N[C@@H]([C@@H](C)CC)C(=O)N(C)CC(=O)N(C)[C@H]3C/C=C\CCN(C3=O)[C@@H](Cc3ccc(C(F)(F)F)cc3)C(=O)N(C)CC(=O)N[C@@H](CCc3ccc(Cl)c(Cl)c3)C(=O)N2C1 [PP1251] | 10.2 | – | – | – | Kd [1, 7]: 0.18 nM; NRAS/KRAS (ratio of KD value for NRAS to KD value for KRAS) ([2]; SPR, KD ratio class): AA (a compound having 20 or more is denoted as AA); HRAS/KRAS (ratio of KD value for HRAS to KD value for KRAS) ([3]; SPR, KD ratio class): A (a compound having 10 or more and less than 20 is denoted as A)

More lines, main results first:

Row | IC50 [4] [nM] | Kd [1, 6] [nM] | Compound | NRAS/KRAS (ratio of KD value for NRAS to KD value for KRAS) ([2]; SPR) | HRAS/KRAS (ratio of KD value for HRAS to KD value for KRAS) ([3]; SPR) | also measured
7 | 330 | – | CCC[C@H]1C(=O)N[C@@H](CC(C)C)C(=O)N(CC)CC(=O)N(C)[C@H]2C/C=C\CCN(C2=O)[C@@H](Cc2ccc(C)cc2)C(=O)N(C)CC(=O)N[C@@H](CCc2cc(F)c(C(F)(F)F)c(F)c2)C(=O)N2C[C@H](OCC)C[C@H]2C(=O)NC2(CCC2)C(=O)N(C)[C@@H](C2CCCC2)C(=O)N(C)[C@H](C(=O)N(C)C)CC(=O)N1C [PP2539] | – | – | Kd [1, 5]: 4.3 nM; NRAS/KRAS (ratio of KD value with respect to GDP-bound NRAS wild-type protein to KD value with respect to KRAS) [2]: A (a compound having 10 or more and less than 20 is denoted as A); HRAS/KRAS (ratio of KD value with respect to GDP-bound HRAS wild-type protein to KD value with respect to KRAS) [3]: B (a compound having 3 or more and less than 10 is denoted as B)
8 | 9.8 | 0.33 | CCO[C@H](C)[C@@H]1NC(=O)[C@H](CC(C)C)N(C)C(=O)C[C@@H](C(=O)N(C)CC)N(C)C(=O)[C@H](C2CCCC2)N(C)C(=O)C2(CC(C)(C)C2)NC(=O)[C@@H]2C[C@H](C)CN2C(=O)[C@H](CCc2cc(F)c(C(F)(F)F)c(F)c2)NC(=O)CN(C)C(=O)[C@H](Cc2ccc(C)cc2)N2CC/C=C\C[C@@H](C2=O)N(C)C(=O)CN(C)C1=O [PP2414] | A (a compound having 10 or more and less than 20 is denoted as A) | A (a compound having 10 or more and less than 20 is denoted as A) | –
9 | 5.3 | – | CCOC[C@H]1C(=O)N[C@@H]([C@@H](C)CC)C(=O)N(C)CC(=O)N(C)[C@H]2C/C=C\CCN(C2=O)[C@@H](Cc2ccc(C(F)(F)F)cc2)C(=O)N(C)CC(=O)N[C@@H](CCc2cc(F)c(C(F)(F)F)c(F)c2)C(=O)N2C[C@H](OCC)C[C@H]2C(=O)NC2(CC(C)(C)C2)C(=O)N(C)[C@@H](CC(C)(C)C)C(=O)N(C)[C@H](C(=O)N(C)C)CC(=O)N1C [PP2732] | – | – | Kd [1, 5]: 0.067 nM; NRAS/KRAS (ratio of KD value with respect to GDP-bound NRAS wild-type protein to KD value with respect to KRAS) [2]: A (a compound having 10 or more and less than 20 is denoted as A); HRAS/KRAS (ratio of KD value with respect to GDP-bound HRAS wild-type protein to KD value with respect to KRAS) [3]: A (a compound having 10 or more and less than 20 is denoted as A)
10 | 4.1 | 0.069 | CCO[C@@H]1C[C@H]2C(=O)NC3(CC(C)(C)C3)C(=O)N(C)[C@@H](C3CCCC3)C(=O)N(C)[C@H](C(=O)N(C)CC)CC(=O)N(C)[C@@H](COC)C(=O)N[C@@H]([C@@H](C)CC)C(=O)N(C)CC(=O)N(C)[C@H]3C/C=C\CCN(C3=O)[C@@H](Cc3ccc(C)cc3)C(=O)N(C)CC(=O)N[C@@H](CCc3cc(F)c(C(F)(F)F)c(F)c3)C(=O)N2C1 [PP2396] | A (a compound having 10 or more and less than 20 is denoted as A) | A (a compound having 10 or more and less than 20 is denoted as A) | –
11 | 39.6 | 1.8 | CCC(CC)[C@H]1C(=O)N(C)[C@H](C(=O)N(C)C)CC(=O)N(C)[C@@H](CC2CC2)C(=O)N[C@@H]([C@@H](C)CC)C(=O)N(C)CC(=O)N(C)[C@H]2C/C=C\CCN(C2=O)[C@@H](CC2CCC(F)(F)CC2)C(=O)N(C)CC(=O)N[C@@H](CCc2ccc(C(F)(F)F)c(OC)c2)C(=O)N2C[C@@H](C)C[C@H]2C(=O)NC2(CC(C)(C)C2)C(=O)N1C [PP2494] | A (a compound having 10 or more and less than 20 is denoted as A) | A (a compound having 10 or more and less than 20 is denoted as A) | –
